# Reference: patent publication US10422079B2, “Method for preserving recycled fiber by using biocides in paper manufacturing and method for manufacturing paper using recycled fibers” (ECOLAB USA INC., priority 2014, dated 2019)
# Test system: pulp contaminated by the microbes (bacteria)
# Assay: Starch degradation in microbe-inoculated recycled-fiber (AOCC) pulp treated with biocides, 5 days (Example 4)
# Format: cell-based
# Details: total chlorine 20 ppm, added once a day, combinations 10 ppm + 10 ppm
# Experimental: 150 g standard American Old Corrugated Containers (sometimes called as AOCC) were weighted. The total starch content of the recycled American Old Corrugated Containers was detected according to the same starch measuring method of example 2, and the result was 9.1%.
# In the pulping and papermaking process, the above waste paper was cut into pieces and immersed into 15 kilograms water overnight. The obtained sample was disintegrated by Valley Beater for 30 minutes and pulped for 20 minutes, and the pulp concentration thereof is about 1%.
# The above obtained pulp was inoculated by the pulp which was contaminated by bacteria in the ratio of one to thousand, followed by cultivating for 3 hours at 37° C. The simulation pulp contaminated by the microbes was obtained to use for the following experiment. The pH, oxidation-reduction potential (ORP), concentration of adenosine triphosphate (ATP) and total number of aerobic bacteria colonies of the pulp which was contaminated initially by the microbes were detected. […]
# The above substances were added into the pulps once a day and the concentrations of the total chlorine were maintained at 20 ppm by controlling the addition doses. The whole experiment was conducted for 5 days and the total starches contents were monitored.
compound,measurement,value
OCl [sodium hypochlorite],starch degradation rate,5%
